Peptide text beside a SMILES is read from it.
What was measured:
[1] = tested on: lymphocytes of the guinea pigs; experiment: E-yield (E-POK) of guinea pig lymphocytes after processing with trypsin; format: cell-based; details: untreated animals 66.5, treated with trypsin 36.1
Method: Biological activity of the new peptide was studied on guinea pigs using recognised testing methods of E-yield of lymphocytes of the guinea pigs subsequent to processing with trypsin.
*Each concentration was tested on 5 animals. The positive growth differs
in relation to the control group EPOK is 50% or higher.

[2] = Solubility of the peptide; format: physicochemical
Excerpt: The peptide obtained by the above formula has the texture of a white powder, which is soluble in water, not completely soluble in alcohol and non soluble on chloroform.
Solubility--Soluble in water, non soluble in chloroform.

## CC[C@H](C)[C@H](N)C(=O)N[C@@H](CCC(=O)O)C(=O)N[C@@H](Cc1c[nH]c2ccccc12)C(=O)O [Ile-Glu-Trp, H-Ile-Glu-Trp-OH] (H-Ile-Glu-Trp-OH)
[1]; compound concentration 10^-6 mg/ml
  QUANTITY E-POK, (%) after treatment with trypsin and compound: 61.4%
[1]; compound concentration 10^-7 mg/ml
  QUANTITY E-POK, (%) after treatment with trypsin and compound: 63.9%
[1]; compound concentration 10^-8 mg/ml
  QUANTITY E-POK, (%) after treatment with trypsin and compound: 64.8%
[1]; compound concentration 10^-9 mg/ml
  QUANTITY E-POK, (%) after treatment with trypsin and compound: 60.2%
[1]; compound concentration 10^-10 mg/ml
  QUANTITY E-POK, (%) after treatment with trypsin and compound: 37.5%
[1]; compound concentration 10^-11 mg/ml
  QUANTITY E-POK, (%) after treatment with trypsin and compound: 40.0%
[1]; compound concentration 10^-12 mg/ml
  QUANTITY E-POK, (%) after treatment with trypsin and compound: 34.3%
[2]; chloroform
  Solubility in chloroform: non soluble
[2]; water
  Solubility in water: Soluble
